Molecules are shown by their SMILES. Some results are limits rather than exact numbers.

As a reminder, the melting point is the temperature, or range, at which the solid turns liquid. For `O=C(NCCO)c1cccc(-c2ccc3cnn(-c4ccc(Cl)cc4Cl)c3c2)c1`, the melting point fell in the range of 191 to 192 °C.

Regarding `O=C(O)c1ccc(Cl)cc1C(F)(F)F`, the melting point fell in the range of 106 to 108 °C. Then `CC12CCC(O)CC1CCC1C2C(=NO)CC2(C)C1CCC21OCCO1` (configuration not stated), with 158 to 159 °C. In the case of `O=C(CSc1nc[nH]n1)c1ccccc1` it was 119 to 120 °C; in that of `CC(=O)N1CCc2cc(C(=O)CN(Cc3ccccc3)Cc3ccccc3)ccc21`, 130 °C; in that of `C=C(C)C(=O)OCCCCc1cc(-c2ccc(OC(=O)C(=C)C)cc2)ccc1OC(=O)C(=C)C`, 76 °C. Compound `CC1=C(C(O)c2ccc3c(c2)CCN(C(N)=O)C3)C(C)(C)CC1` (configuration not stated) showed a melting point of 68.6 to 69.6 °C.

Turning to `C=CCOc1cc(-c2nn3c(c2Cl)CCCC3)c(F)cc1Cl`, the melting point was in the range of 91 to 92 °C. Then `O=c1n(CCCF)nnn1-c1ccc(OCc2ccc(F)cc2)cc1F`, with 86 to 88 °C. Then `O=C1OC(COc2ccccc2)CN1CCOC1CCCCO1` (configuration not stated), with 78 to 80 °C. Take `Cc1ccccc1Sc1cccc(CC(=O)O)c1O`: the melting point fell in the range of 96 to 97 °C. Then `CCNC(=O)Nc1cc(-c2sc(CC)nc2-c2cccc(C)c2)ccn1`, with 160 to 162 °C.

For the compound `CCOCc1nc2c(N)nc3ccccc3c2n1CC1(OCCS(C)(=O)=O)CCC1`, the melting point lay in the range of 221 to 223 °C. Then `O=C(CCl)NC(C(=O)O)N(C(=O)CCl)c1cscn1` (configuration not stated), with 184 to 186 °C; and `Cc1ccc(COC(=O)CCC2CCC(=O)N2)cc1` (configuration not stated), with 71 to 72 °C; and `Cc1nc(OCCO)c(C#N)c(N2CCc3ccccc3CC2)n1`, with 86.7 to 92.3 °C. Then `CC(C)(O)c1cccc(OCc2nc3cc(F)ccc3s2)c1`, with 124 to 125 °C; and `CC(C)(C#N)c1cc(Cn2cncn2)cc(C(C)(C)C#N)c1`, with 81 to 82 °C. The compound `CC(C)(C)c1ccc(C(=O)Nc2cn3cc(CO)ccc3n2)cc1` gave a melting point of 249 to 250 °C. Then `Cc1ccc(Cl)cc1NC(=S)Nc1ccn(C)n1`, with 217 to 218 °C; and `O=C1C(c2cc3c(cc2O)OCCC3)c2ccccc2N1C(c1ccccc1)c1ccccc1` (configuration not stated), with 207 to 210 °C. Then `Cc1cnc(Oc2cccc(C(F)(F)F)c2)c(C(=O)O)c1`, with 173 to 175 °C; and `CCOC(=O)N1CCC(N)(CC#N)CC1`, with 68 to 69 °C; and `COC(=O)C1(c2ccc(OCCN)cc2)CC1`, with 119 to 122 °C. Then `CC1(C)CN(Cc2ccccc2[N+](=O)[O-])C(=O)S1`, with 128 to 129 °C; and `OCCC(c1ccccc1)C(O)(c1ccccc1)c1ccc(O)cc1` (configuration not stated), with 192 to 194 °C.

In the case of `Cc1cnc2c(NC(=O)c3c(Cl)cccc3Cl)ccc(Cl)c2c1Cl`, the melting point was 222 to 233 °C. Then `C=C(C)COc1ccc(CC(=O)OC)cc1[N+](=O)[O-]`, with 30 to 31.5 °C; and `COc1ncc(C(=O)Cc2c(Cl)cncc2Cl)cc1OC1CCCC1`, with 118 to 119 °C; and `C[C@@H]1CN2C(=O)c3ccccc3[C@@](O)(c3ccc(F)cc3)C2=N1`, with 229 to 232 °C. Take `O=C(Nc1nc2ccccc2s1)c1ccccc1C(c1ccc(O)cc1)c1ccc(O)cc1`: the melting point was 140 to 141 °C. `COC(=O)c1ccc(Cn2c(=O)c3c(N4CCN(C)CC4)cc(Cl)cc3n(Cc3ccccc3)c2=O)cc1`: the melting point lay within 90 to 94 °C. In the case of `CCOC(=O)Cc1ccc2c(c1)C(=O)c1ccccc1CS2` it was 98 to 100 °C. Then `CCn1nc2c(N)nc3ccccc3c2c1C`, with 217 to 218 °C; and `CCOC(=O)c1ccc(Br)c(OC(F)F)c1Br`, with 45 to 47 °C.

Compound `COc1ccc(C2=NN(C3CCN(C(C)=O)CC3)C(=O)CC2C)cc1OC` (configuration not stated) gave a melting point of 149 to 152 °C. The compound `CCCCCC(=O)NC(C)(C)C(=O)O` had a melting point of 141 to 143 °C.

For the compound `NC(=O)CN1C(=O)[C@H](NC(=O)c2cc3ccccc3[nH]2)[C@H](c2ccccc2)Sc2cc(Cl)ccc21` (relative stereo), the melting point was in the range of 174 to 178 °C. Then `N#Cc1cnc(-c2ccccc2OCC2CC2)[nH]c1=O`, with 188 to 190 °C; and `O=C(O)[C@@H]1CSCN1C(=O)OCc1ccccc1`, with 58 to 63 °C; and `COC(=O)c1ccc(C(=O)N2Cc3cccn3Cc3ccccc32)cc1`, with 186 to 188 °C. Then `CC1=C(C(=O)OC(C)(C)C)C(c2cccc(Cl)c2)C(C(=O)OC(C)(C)C)=C(C)N1`, with 190 °C; and `CC(C)NCC(O)COc1ccccc1-c1ccc(=O)[nH]n1` (configuration not stated), with 150 to 152 °C; and `COc1ccc2ccc(N3C(=O)c4ccccc4C3OCC(=O)NC3CCCCC3)nc2n1` (configuration not stated), with 175 °C.

Consider `CC(C)CC(NC(=O)COc1cccc2ccccc12)C(=O)NC(Cc1ccccc1)C(=O)CSCc1ccco1` (configuration not stated), for which the melting point lay in the range of 118 to 120 °C. Then `CCC(=O)OC(CC)c1ccc(Cl)c2nc3n(c12)CCCN3c1ccc(Cl)cc1Cl` (configuration not stated), with 133 to 135 °C; and `CCOC(=O)C(Br)=NNc1ccc(F)cc1`, with 99 to 100 °C; and `CC(=O)Nc1ccc(OCCCCCO[N+](=O)[O-])cc1`, with 96 to 98 °C. `CCC(O)c1ccc(-c2ccc(Cl)cc2)o1` (configuration not stated) showed a melting point of 74 to 75 °C. In the case of `CCCC(=O)Nc1ccc2oc3c(c2c1)CCCC3` it was 133 to 135 °C; in that of `Cc1cccc(COc2ccc3c(c2)[C@@H](O)[C@H](Cc2cccnc2)CO3)n1` (relative stereo), 66 to 68 °C. Then `CCCc1nc(-n2cccc2)c(C(=O)OC)[nH]1`, with 135 to 138 °C; and `COC(=O)c1ccccc1COc1ccc(-c2cc(O)c(SCCc3ccccc3)c(=O)o2)cc1`, with 161 to 162 °C; and `O=C(O)C(O)=CC(=O)c1c(Cc2ccccc2)[nH]c2ccccc12`, with 165 to 167 °C. As for `Cc1c(F)cccc1Cc1c(-c2ccccc2)c2cc(O)cnn2c1C(=O)N1CCNCC1`, the melting point is 206 to 208 °C. In the case of `NCCN1C(=O)c2ccccc2C1(O)c1ccccc1Cl` (configuration not stated) it was 172 to 174 °C; in that of `CN1CCN(CCCNc2ccc(Cl)cc2N)CC1`, 88 to 90 °C.

Consider `Cc1cccc2ncc(C(=O)NCc3ccc(Cl)cc3)c(O)c12`, for which the melting point lay within 205 to 206 °C.

In turn, `O=c1[nH]ccc2c1ccc1cc[nH]c12` yielded a melting point of 244 to 245 °C. In the case of `C=CCOCCOC(=O)c1cc(-n2c(OC)nc(C(F)(F)F)cc2=O)c(F)cc1Cl` it was 74 to 77 °C; in that of `COC(=O)c1ccc(C=CC(=O)N2CCc3c([nH]c4ccccc34)C2c2ccc3c(c2)CCO3)nc1` (configuration not stated), greater than 260 °C; in that of `N#CC(=CN1CCOCC1)C(C[N+](=O)[O-])c1cccc(Cl)c1Cl` (configuration not stated), 74 to 77 °C. In the case of `Cc1c2c(c(-c3ccc(C(F)(F)F)cc3)c3c4c(ccc13)OCO4)CNC2=O` it was 303 to 305 °C. `Cc1ccc(NCC2CCN(C3CCOCC3)CC2)c(C(=O)Nc2ccc(Cl)cn2)c1` displayed a melting point of 178 to 182 °C. In the case of `CC(=O)SC(CC(=O)c1ccc(Oc2ccccc2)cc1)C(=O)O` (configuration not stated) it was 106 °C; in that of `Cc1ncnc(O)c1Cl`, 250 to 251 °C; in that of `O=C(CCCc1cccs1)N[C@H](Cc1ccc(C(F)(F)F)cc1)[C@@H](O)c1cccc2ccccc12` (racemic), 139 to 140 °C. In the case of `COC(=O)C1(n2c(=O)c3ccccc3n(CCCCBr)c2=O)CCCC1` it was 96 to 98 °C. In the case of `CCCOc1cc(Br)ccc1-c1nc2cc3ncn(Cc4ccc(F)cc4)c3cc2c(=O)[nH]1` it was 295 to 297 °C; in that of `CCOC(=O)c1ccc(-c2nc(COc3ccc(CO)cc3OC)c(C)o2)s1`, 108 to 109 °C. Take `CCOC(=O)c1ncc(Cl)cc1F`: the melting point fell in the range of 48 to 50 °C. In the case of `Cc1ccc(Cl)c(Nc2ccccc2-c2n[nH]c(=S)o2)c1Cl` it was 257 to 259 °C; in that of `COC(=O)c1c(S(C)(=O)=O)ccc(C(=O)O)c1C`, 113 to 118 °C; in that of `CCCCCCCCCCCC=C1NN=CN1N`, 40 to 43 °C.

The compound `O=c1c(=NO)c2ccccc2oc2cc(F)ccc12` showed a melting point of 196 to 198 °C. Regarding `CCN(CC)CC#CCCC(=O)C(O)(c1ccccc1)C1CCCC1` (configuration not stated), the melting point lay in the range of 128 to 129 °C. On to `CCc1cc2c(OCC(=O)OC)cccc2n1Cc1ccccc1`, for which the melting point lay within 89 to 92 °C.

Consider `O=C(c1ccc(Br)cc1)c1cccc2cc[nH]c12`, for which the melting point lay in the range of 162 to 164 °C.

The compound `CCOc1ccccc1CS(N)(=O)=O` showed a melting point of 92 to 93 °C. `COC(=O)COc1ccc(CC(C)=O)cc1` gave a melting point of 63 °C. In the case of `CCOC(=O)COc1cc2c(C)csc2c(Cl)c1Cl` it was 115 to 117 °C; in that of `COc1cccc(CC(=O)O)c1OCCCc1cc(OC(C)C)nn1Cc1ccc2ccccc2n1`, 129 to 130 °C; in that of `COc1ccnc(CCc2nc3c(C)cc(C)nc3[nH]2)c1`, 176 to 178 °C.

The compound `CC(C)(C)NC(=O)[C@@H]1CC(OCCCCF)CN1C(=O)[C@@H](O)[C@H](Cc1ccccc1)NC(=O)[C@H](CC(N)=O)NC(=O)OCc1ccccc1` (some centres not stated) displayed a melting point of 68 to 71 °C.

`O=C(O)Cn1cc(Br)cnc1=O` returned a melting point of 183 to 185 °C. In the case of `Cc1ccc2c(=O)cc(CS(C)=O)oc2c1C` (configuration not stated) it was 205 to 209 °C; in that of `NS(=O)(=O)c1ccc(S(=O)(=O)CCCO)c([N+](=O)[O-])c1`, 168 to 170 °C. Then `N#Cc1ccc(O)c(O)c1O`, with 172 °C; and `CCOC(=O)Cc1ccccc1I`, with 40.5 to 41.5 °C. Then `CC(C)C(C)(C#N)N1C(=O)C=C(Nc2ccccc2CO)C1=O` (configuration not stated), with 39 to 45 °C; and `O=C(O)CSCCCCCCNS(=O)(=O)c1ccc(Cl)cc1`, with 104 to 105 °C; and `CCCOc1ccc(S(=O)(=O)N2CCN(CCOC(C)=O)CC2)cc1-c1nc2c(CCCF)cn(CC)c2c(=O)[nH]1`, with 134 to 135 °C.

The values above are taken from a melting point compilation (Tetko et al.; mined from patent text by program, amines drawn as free bases though some values may be those of a salt).
